Assays:
[1] = test system: Human corneal endothelial cells; experiment: Adhesion of thawed cells cultured in medium with addition of DMSO (phase contrast microscopy), Example 3; type: cell-based
Method: (§1) • 1. Collect cells in the same manner as in Example 2 (Steps 1 to 10) and preserve the cells in cryotubes using Cryostor CS2. • 2. Freeze in a programmable freezer from 4° C. to −80° C. at −0.5° C./min. 3. Transfer to a Bicell processing housing previously cooled at −80° C. when a temperature was decreased to −80° C. and cryopreserve the Bicell in a freezer at −80° C. for 3 days. • 4. After 3 days of cryopreservation, thaw the cryotubes in which the cells were preserved in a water bath at 37° C. for 1 to 2 minutes. • 5. Collect the cells in a medium warmed to 37° C. in advance, and measure the number of cells collected and cell viability by trypan blue staining. • 6. Dispense the collected cells into four 15 mL STEMFULLS and centrifuge at 300 G for 5 minutes. • 7. After centrifugation, remove a supernatant, adjust a cell density to 1000 cells/mm^2 using media containing 10%, 5%, 2%, and 0% DMSO, and reseed in 12-well plates. • 8. Photograph the cells under a phase contrast microscope at 1 h, 3 h, 6 h, and 24 h after seeding. • 9. After taking photographs of the cells at each time point, collect all cells in the container, including floating cells, and determine cell viability by trypan blue staining.

[2] = test system: Human corneal endothelial cells; experiment: Viability of cells reseeded in medium with DMSO and collected (trypan blue), Example 3; type: cell-based; settings: medium containing 10% DMSO
Method: as §1

cell adhesion ([1]; 5% DMSO, after 1 hour): almost no adherent cells | cell adhesion ([1]; 5% DMSO, after 24 hours): almost no adherent cells | cell adhesion ([1]; 10% DMSO, until 24 hours after seeding): no cells were adherent | adhesion rate compared with medium without DMSO ([1]; medium containing 2% DMSO): not different | number of cells compared with medium without DMSO ([1]; medium supplemented with 5% DMSO): significantly lower | number of cells compared with medium without DMSO ([1]; medium supplemented with 10% DMSO): significantly lower
Compound: C[S+](C)[O-] [DMSO, dimethyl sulfoxide]
cell adhesion ([1]; 5% DMSO, after 3 and 6 hours): less than half of the cells were adherent | viability of cells after reseeded and collected ([2]; at 1 hour): no decrease in viability | viability of cells after reseeded and collected ([2]; subsequent to 1 hour): decrease in viability
